The record followed here is patent publication US6015820A, “4-Aryl-thio-pyridin-2(1H)-ones, medicines containing them and their uses in the treatment of illnesses linked to HIV” (priority 1995, dated 2000).

One data set can be described thus: cytotoxicity on PBMC. The data set is classed as cell-based. The conditions noted are these: human; Table 4; line HIV-1 IIIB/PBMC. As to the method: (§1) In parallel experiments, the cytotoxicity of the molecules was measured on non-infected cells, after an incubation of 5 days in the presence of these molecules, by using a […] titration (MTT test) based on the ability of the mitochondrial dehydrogenases of the living cells to reduce 3-(4,5-dimethylthiazol-2-yl)-2,5-diphenyltetrazolium bromide in formazan (Mosmann et al. J. Immunol. Methods ([…]), 65, 55-63). The concentration cytotoxic at 50% (CC50) is the concentration at which the DO540 has been reduced to half and is calculated by using the program mentioned above.

The next data set deals with PBMC. The experiment in a line: cytotoxicity on PBMC. The data set is classed as cell-based. The settings on record: Table 4, 7200 min. As to the method:
as §1

For a further data set, the system named is HIV-2 D194. Briefly: anti-HIV-2 activity, HIV-2 D194/PBMC. The data set is classed as cell-based. The conditions noted are these: Human immunodeficiency virus 2, Table 4. As to the method: (§2) The virus production was measured by quantifying the activity of the inverse transcriptase associated with viral particles released into the culture supernatant. In short, cells were infected with 100 TCID50 for 30 minutes; after adsorption of the virus, unbound particles were removed by two washings and the cells were cultivated in the presence of different concentrations of the compounds tested for 5 days before determining the viral production. The concentration inhibiting 50% of the viral multiplication (IC50) came from the computer plot of the median effect of the dose effect results (Chou et al. Elsevier Science Publishers, Cambridge U.K. (1985), 19-28).
(§3) Thirty two compounds according to the invention were studied for their anti-HIV-1 biological activity. […] This compound was then tested with other colonies and other cell lines (Table 4).

Data set [1] deals with inverse transcriptase of HIV-1 (HIV-1 M:B_ARV2/SF2, UniProt P03369). The experiment in a line: inverse transcription with HIV-1 RNA as natural matrix (complementary DNA, gel). The data set is classed as biochemical. The conditions noted are these: FIG. 10; compound 7c 40-400 nM. As to the method: FIG. 10 illustrates the dose effect of compound 7c on the inhibition of the inverse transcriptase of HIV-1. The expected complementary DNA, 147 nucleotides long, is shown to the left of the gel (well 1). Wells 2 to 5 correspond to decreasing concentrations of compound 7c (well 2: 400 nM, well 3: 300 nM: well 4: 100 nM and well 5: 40 nM).
The pmCG6 plasmid containing the nucleotide fragment 1-4005 of the HIV-1 (pmal) in psP64, under the control of the promoter of the T7 bacteriophage was provided by Dr. J. L. Darlix. A strain of E.coli HB 101 (1035) recA was used for the amplification of the plasmid. After digestion of this clone with Hinc II and transcription in vitro by using the RNA T7 polymerase, RNAs were obtained from the +50 position of the pmal sequence. The transcription was carried out in vitro and the inverse transcription in the manner described by B. Bordier et al. (1992 Nucleic Acids Res. 20, 5999-6006).
All the compounds were dissolved in dimethyl#sulphoxide (DMSO). The test samples were prepared in the presence of the same final concentration of DMSO. IC50 is the concentration required to inhibit the activity of the IT of the recombinant HIV-1 by 50%.

The subject of the next data set is HIV-1 IIIB. The experiment in a line: anti-HIV-1 activity, HIV-1 IIIB/PBMC. It counts as cell-based. The conditions noted are these: Human immunodeficiency virus 1, Table 4. On the procedure:
as §2, §3

A further data set deals with isolated virion HIV-1LAI. Briefly: infectivity of the isolated virion after treatment with inhibitors (HT4LacZ cells). The data set is classed as cell-based. On the procedure:
H9 cells chronically infected with HIV-1LAI (10^8 /ml) were cocultivated with MT4 cells (10^8 /ml) for 48 hours in an RMPI medium supplemented by 10% of calf foetal serum (CFS). The cells were then removed by centrifugation and then the supernatant liquid was filtered (0.45 μm) to remove residual cells and cell debris.
After having been incubated with the various inhibitors, the viral supernatants (200 μl) were deposited in the filtering part of a VectaSpin tube (WHATMAN) fitted with an ANAPORE membrane of porosity 0.02 μm. For 10 minutes they were subjected to centrifugation, the acceleration of which reached 6000 g at the filtering membrane. The viral residuums thereby obtained (10-15 μl ) were washed 3 times under the same conditions with 500 μl of RPMI then restored to their initial volumes with RPMI containing 10% of CFS.
The HT4LacZ-1 cells were kept in a DMEM medium (glucose 4.5 g/l) supplemented with 10% of calf foetal serum in the presence of Gentamycin (50 mg/l). These cells stemmed from Hela cells in which had been cloned, on the one hand the gene coding for the human CD4 so as to render them susceptible to infection by the HIV (Chesebro and Wehrly, 1988, J. Virol., 62, 3779-3788), and on the other hand the gene for β-Galactosidase which, placed under the dependent of the LTR of the HIV-1 served as a marker for the viral infection (Rocancourt et al. (1990) J. Virol. 1990 64-6, 2660-2688). When the virus infects such cells after its integration into the cellular genome, the production of the regulatory protein TAT activates the LTR of the HIV. The result is an activation of the gene of β-Galactosidase which leads to its production in the intracellular medium and more particularly in the nucleus. It is this protein that serves as a marker of the infection.
The evening of day 0, the HT4LacZ-1 cells were diluted at the rate of 75000 cells per ml of medium. 100 μl of this suspension was then distributed over a flat bottomed plate with 96 wells and was cultivated overnight at 37° C. (5% of CO2).
The morning of day 1, the supernatant liquid was removed by aspiration. Each well was then complemented with 200 μl of the viral supernatant dilutions to be tested. Each dilution was made in a DMEM medium (glucose 4.5 g/l) supplemented with 10% of CFS. The plates were then placed in an environment at 37° C. in the presence of 5% of CO2.
After 48 hours of culture, the supernatant liquid was aspirated, then each well was washed 3 times in PBS before being complemented with 200 μl of developing buffer (Tris-HCl 50 mM pH=8.5, ONPG 5 mg/ml β-mercapto-ethanol 7 μl/ml Triton×100 0.05%). After 4 hours of incubation at 37° C., the optical density of each well was measured.
The concentration of each of the inhibitors of the IT of the HIV-1 was adjusted to 50 mM in DMSO. The later dilutions were carried out on RPMI 1640. 2 μl of suitable dilutions of each of these inhibitors were added to 198 μl of a freshly unfrozen viral suspension. After 3 hours of incubation at ambient temperature, these suspensions were filtered on 0.02 μ VecraSpin tubes, then washed 3 times with 500 μl of RPMI 1640. The viral residuums were then adjusted to 200 μL with the culture medium (RPMI-10% CFS), then tested with regard to their infectivity on HT4LacZ cells.

Entries after “also recorded” stand apart in the source; their conditions may differ.

As a reminder, the CC50 is the concentration that lowers cell viability or growth by half. A high value points to lower toxicity to the cells. What is called IC50 is the midpoint of a concentration-inhibition curve. In turn, `CCc1c(C)[nH]c(=O)c([N+](=O)[O-])c1Sc1cc(C)cc(C)c1` [Compound 7c, 5-ethyl-6-methyl-3-nitro-4-(3', 5'-dimethylphenyl)thio-pyridin-2(1H)-one] came in with a CC50 at 120 h in the data set “cytotoxicity on PBMC” of over 10 µM. The CC50 in the data set with PBMC (line HIV-1 6 type D/PBMC), with PBMC (line HIV-1 4200 type E/PBMC) and in the data set with PBMC (line HIV-2 D194/PBMC) was over 10 µM each time. The IC50 is over 10 µM with HIV-2 D194 and under 0.03 nM with HIV-1 IIIB. For the same compound, in data set [1], the “inhibition with RNA from HIV-1 as natural matrix” value is recorded as “strong inhibition”. Further, in the data set on isolated virion HIV-1LAI (Human immunodeficiency virus 1, 0.1 μM inhibitor, 3 h, 100 TCID50, compared with viral supernatant subjected to same treatments, mean of 1 to 4 experiments, read-out: Activity of the isolated virions after treatment), the activity at 0.1 µM is 60%. For the same compound, the activity at 1 µM in the data set with isolated virion HIV-1LAI (Human immunodeficiency virus 1, 1 μM inhibitor, 3 h, 100 TCID50, compared with viral supernatant subjected to same treatments, mean of 1 to 4 experiments, read-out: Activity of the isolated virions after treatment) is 1%. In addition, in the data set with isolated virion HIV-1LAI (Human immunodeficiency virus 1, 10 μM inhibitor, 3 h, 100 TCID50, compared with viral supernatant subjected to same treatments, mean of 1 to 4 experiments, read-out: Activity of the isolated virions after treatment), the activity at 10 µM was 0%. In the data set with isolated virion HIV-1LAI (incubation of 45 minutes, preliminary experiments), the inhibition in infectivity entry is “greater than 98%”. Moreover, the “activity on the isolated virion (in words)” value with isolated virion HIV-1LAI (isolated virion) was “truly active on the isolated virion; also recorded: capable, after having penetrated the viral particle, of inhibiting the inverse transcriptase and of suppressing the viral infectivity”.
